Data on 6 compounds can be found in patent publication US10791742B2, “Plant growth regulator compounds” (SYNGENTA PARTICIPATIONS AG, priority 2016, dated 2020).

Structures are written as SMILES.

Assay [1] has as its system corn plants (variety NK OCTET). As to the kind of experiment: Reduced plant water use in corn (foliar spray, pot weighing). It is filed as in vivo. To be noted: for % WU 0 DAA (PM): Table A3 (comparison trial), 0 DAA p.m. The method, then:
(§1) Compounds were tested for their effect on reducing plant water use as follows. The compounds were applied by foliar spray to 12 day old corn plants (variety NK OCTET) grown in controlled environment plant growth chambers. All compounds were applied using an emulsifiable concentrate (EC) formulation that was diluted to the desired concentrations with water containing 0.4% of the adjuvant rape seed methyl ester. Plant water use during the day was assessed by repeated weighing of the pots in which the plants were grown before and after application of the compounds at the indicated times (expressed in days after application (DAA)). The water use data before application was used to correct any differences in water use arising due to non-treatment effects (e.g. due to differences in plant size). The untransformed water use values were subjected to an analysis of covariance, fitting the effect of treatment and using the baseline water use 1 day before application as a covariate. Application of the chemicals (0 DAA) took place approximately between 08:00 and 09:30 a.m. Water use (WU) was measured within day time (chamber light is on 06:00 to 20:00) at these timepoints: 0 DAA a.m. (10:30-12:50), 0 DAA p.m. (14:00-19:50).

The subject of assay [2] is soybean plants (variety S20-G7). As to the kind of experiment: Reduced plant water use in soybean (foliar spray, pot weighing). It is filed as in vivo. To be noted: Table A4, 125 μM foliar spray, water use vs negative control, average of 6 pots; for % WU 0 DAA (AM): 0 DAA a.m. (10:30-12:50); for % WU 0 DAA (PM): 0 DAA p.m. (14:00-19:50). The procedure:
as §1, with “soybean” for “corn”, “S20-G7)” for “NK OCTET)”, “concentration” for “concentrations”, “additional surfactant (EXTRAVON 1 g/20 L).” for “0.4% of the adjuvant rape seed methyl ester.”, “covariate.” for “covariate. Application of the chemicals (0 DAA) took place approximately between 08:00 and 09:30 a.m. Water use (WU) was measured within day time (chamber light is on 06:00 to 20:00) at these timepoints: 0 DAA a.m. (10:30-12:50), 0 DAA p.m. (14:00-19:50).”
Application of the chemicals (0 DAA) took place approximately between 08:00 and 09:30 a.m. Water use (WU) was measured within day time (chamber light is on 06:00 to 20:00) at these timepoints: 0 DAA a.m. (10:30-12:50), 0 DAA p.m. (14:00-19:50).

Setting [3] is: corn, 500 μM foliar spray, water use vs negative control, average of 6 pots.

As to `CCN1C(=O)OC(C)c2cc(CNS(=O)(=O)c3ccccc3)ccc21` (centres unmarked) [Compound 13.001, N-[(1-ethyl-4-methyl-2-oxo-4H-3,1-benzoxazin-6-yl)methyl]-benzenesulfonamide], the “% WU 0 DAA (PM)” value in assay [1] (setting [3]) is −40%. Besides, in assay [1] (concluded from Table A3, corn water use at 500 μM), the “ABA agonist potency compared with compound A (in words)” value is “more potent ABA agonist than dihydroquinolinone compound A”. For the compound `CCN1C(=O)OC(C)c2cc(CNS(=O)(=O)c3ccccc3)cc(F)c21` (centres unmarked) [Compound 20.001, N-[(1-ethyl-8-fluoro-4-methy1-2-oxo-4H-3,1-benzoxazin-6-yl)methyl]benzenesulfonamide], the “% WU 0 DAA (AM)” value in assay [1] (Table A2 (further trial), corn, 500 μM foliar spray, water use vs negative control, 0 DAA a.m. (10:30-12:50), average of 6 pots) was −37%. Besides, the “% WU ODAA (PM)” value in assay [1] (Table A2 (further trial), corn, 500 μM foliar spray, water use vs negative control, 0 DAA p.m. (14:00-19:50), average of 6 pots) is −42%.

With `CCCN1C(=O)OC(C)c2cc(CNS(=O)(=O)c3ccccc3)ccc21` (centres unmarked) [Compound 14.001, N-[(4-methyl-2-oxo-1-propyl-4H-3,1-benzoxazin-6-yl)methyl]-benzenesulfonamide], in assay [2], the “% WU 0 DAA (AM)” value is on record as −49% and the “% WU 0 DAA (PM)” value is recorded as −55%. The corresponding values for `CCCN1C(=O)OC(C)c2cc(CNS(=O)(=O)c3ccc(Cl)s3)ccc21` (centres unmarked) [Compound 14.048, 5-chloro-N-[(4-methyl-2-oxo-1-propyl-4H-3,1-benzoxazin-6-yl)methyl]thiophene-2-sulfonamide] are −51% and −55%. As for `CCN1C(=O)CC(C)c2cc(CNS(=O)(=O)c3ccccc3)ccc21` (centres unmarked) [A, reference compound], the “% WU 0 DAA (PM)” value in assay [1] (setting [3]) is −24%. On to `CCCN1C(=O)OC(C)c2cc(CNS(=O)(=O)c3ccccc3)cc(F)c21` (centres unmarked) [Compound 25.001, N-[(8-fluoro-4-methyl-2-oxo-1-propyl-4H-3,1-benzoxazin-6-yl)methyl]benzenesulfonamide], for which, in assay [2], the “% WU 0 DAA (AM)” value is −48% and the “% WU 0 DAA (PM)” value was −53%.
